Source: EPA's ToxRefDB 2

What was measured:
rat [1] = conditions: Combined chronic toxicity/carcinogenicity, sprague dawley, Oral, Feed, dose end: 24 month, group: systemic
dog [2] = conditions: Chronic toxicity, beagle, Oral, Feed, dose end: 24 month, group: systemic
mouse = conditions: Carcinogenicity, cd1, Oral, Feed, dose end: 104 week, group: systemic
rat [3] = conditions: Multigenerational reproductive toxicity study, other, Oral, Water, dose end: 2 generation
rabbit [4] = conditions: Prenatal developmental toxicity study, new zealand white, Oral, Gavage/Intubation, dose end: 27 GD, group: maternal
dog [5] = conditions: Sub-acute repeat dose toxicity, beagle, Oral, Water, dose end: 28 day, group: systemic
rat [6] = conditions: Combined chronic toxicity/carcinogenicity, sprague dawley, Oral, Water, dose end: 104 week, group: systemic
rabbit [7] = conditions: Prenatal developmental toxicity study, new zealand white, Oral, Gavage/Intubation, dose end: 19 GD
rat [8] = conditions: Multigenerational reproductive toxicity study, sprague dawley, Oral, Water, dose end: 2 generation
rat [9] = conditions: Subchronic oral toxicity in rodents, sprague dawley, Gavage/Intubation, dose end: 13 week, group: systemic
rat [10] = conditions: Multigenerational reproductive toxicity study, Oral, Feed, dose end: 3 generation, group: offspring
[11] = systemic / pathology microscopic / liver / eosinophilic focus
[12] = systemic / organ weight / thyroid gland / relative to body weight
[13] = systemic / organ weight / thyroid gland / relative to body weight + systemic / organ weight / liver / relative to body weight
[14] = systemic / pathology microscopic / liver / adenoma + systemic / pathology microscopic / liver / adenoma/carcinoma combined + systemic / …
[15] = group: offspring, systemic / in life observation / body weight / offspring (pup) weight + systemic / organ weight / kidney / absolute + systemic / organ …
[16] = group: parental, systemic / in life observation / water consumption / water consumption
[17] = group: parental, systemic / in life observation / water consumption / water consumption + systemic / in life observation / body weight / body weight + …
[18] = group: reproductive, reproductive / reproductive performance / fertility / fertility
[19] = systemic / in life observation / body weight / body weight + systemic / in life observation / food consumption / food consumption + systemic…
[20] = systemic / pathology microscopic / nose / inflammation
[21] = systemic / pathology microscopic / nose / inflammation + systemic / pathology microscopic / stomach / hypertrophy
[22] = systemic / in life observation / water consumption / water consumption
[23] = group: developmental, developmental / developmental malformation / aortic arch / dilated + developmental / developmental malformation / bone / [other] + …
[24] = group: maternal, systemic / in life observation / body weight / body weight gain + systemic / in life observation / clinical signs / defecation + systemic / …
[25] = group: offspring, reproductive / offspring survival early / dead fetuses / dead fetuses + reproductive / offspring survival early / live fetuses / live …
[26] = group: parental, systemic / in life observation / food consumption / food consumption + systemic / in life observation / water consumption / water …
[27] = group: reproductive, reproductive / reproductive performance / dystocia / dystocia
[28] = group: reproductive, reproductive / reproductive performance / dystocia / dystocia + reproductive / reproductive performance / postimplantation loss / …
[29] = systemic / organ weight / heart / nos + systemic / organ weight / heart / relative to body weight
[30] = systemic / organ weight / heart / nos + systemic / organ weight / heart / relative to body weight + systemic / hematology / erythrocyte (rbc…
[31] = systemic / in life observation / body weight / offspring (pup) weight + systemic / in life observation / food consumption / food consumption

SMILES: Cc1[nH]c(=O)n(C(C)(C)C)c(=O)c1Cl [Terbacil]
- LOAEL (rat [1]; systemic / organ weight / liver / absolute + systemic / organ weight / liver / relative to body weight + systemic / in life observation / …): 83 mg/kg/day
- NOAEL (rat [1]; systemic / organ weight / liver / absolute + systemic / organ weight / liver / relative to body weight + systemic / pathology microscopic / …): 1.4 mg/kg/day
- LEL (rat [1]; [11]): 0.9 mg/kg/day
- NEL (rat [1]; [11]): < 0.9 mg/kg/day
- LEL (dog [2]; [12]): 6.25 mg/kg/day
- LOAEL (dog [2]; [12]): 6.25 mg/kg/day
- NEL (dog [2]; [13]): 1.25 mg/kg/day
- NOAEL (dog [2]; [13]): 1.25 mg/kg/day
- LEL (mouse; [14]): 7.2 mg/kg/day
- NEL (mouse; [14]): < 7.2 mg/kg/day
- LOAEL (mouse; systemic / pathology microscopic / liver / hyperplastic nodule (pre-neoplastic)): 1070 mg/kg/day
- NOAEL (mouse; systemic / pathology microscopic / liver / hyperplastic nodule (pre-neoplastic) + systemic / pathology microscopic / liver / adenoma + …): 179 mg/kg/day

SMILES: O=[N+]([O-])C(Br)(CO)CO [Bronopol]
- NEL (rat [3]; group: offspring, systemic / in life observation / body weight / offspring (pup) weight): 70 mg/kg/day
- LEL (rat [3]; [15]): 200 mg/kg/day
- LOAEL (rat [3]; [15]): > 200 mg/kg/day
- NOAEL (rat [3]; [15]): ≥ 200 mg/kg/day
- LEL (rat [3]; [16]): 25 mg/kg/day
- NEL (rat [3]; [16]): < 25 mg/kg/day
- LOAEL (rat [3]; [17]): > 200 mg/kg/day
- NOAEL (rat [3]; [17]): ≥ 200 mg/kg/day
- LEL (rat [3]; [18]): 200 mg/kg/day
- LOAEL (rat [3]; [18]): > 200 mg/kg/day
- NEL (rat [3]; [18]): 70 mg/kg/day
- NOAEL (rat [3]; [18]): ≥ 200 mg/kg/day
- LOAEL (rabbit [4]; systemic / in life observation / body weight / body weight + systemic / in life observation / food consumption / food consumption): 40 mg/kg/day
- LEL (rabbit [4]; [19]): 40 mg/kg/day
- NEL (rabbit [4]; [19]): 10 mg/kg/day
- NOAEL (rabbit [4]; [19]): 10 mg/kg/day
- LEL (dog [5]; [20]): 4.1 mg/kg/day
- NEL (dog [5]; [20]): < 4.1 mg/kg/day
- LOAEL (dog [5]; [21]): > 32.6 mg/kg/day
- NOAEL (dog [5]; [21]): ≥ 32.6 mg/kg/day
- LEL (rat [6]; [22]): 10 mg/kg/day
- NEL (rat [6]; [22]): < 10 mg/kg/day
- LOAEL (rat [6]; systemic / in life observation / water consumption / water consumption + systemic / in life observation / body weight / body weight gain + …): 40 mg/kg/day
- NOAEL (rat [6]; systemic / in life observation / water consumption / water consumption + systemic / pathology microscopic / stomach / squamous cell …): 10 mg/kg/day
- LEL (rabbit [7]; [23]): 80 mg/kg/day
- LOAEL (rabbit [7]; [23]): 80 mg/kg/day
- NEL (rabbit [7]; [23]): 40 mg/kg/day
- NOAEL (rabbit [7]; [23]): 40 mg/kg/day
- LEL (rabbit [7]; [24]): 80 mg/kg/day
- LOAEL (rabbit [7]; [24]): 80 mg/kg/day
- NEL (rabbit [7]; [24]): 40 mg/kg/day
- NOAEL (rabbit [7]; [24]): 40 mg/kg/day
- LEL (rat [8]; [25]): 150 mg/kg/day
- LOAEL (rat [8]; [25]): 150 mg/kg/day
- NEL (rat [8]; [25]): 50 mg/kg/day
- NOAEL (rat [8]; [25]): 50 mg/kg/day
- LEL (rat [8]; [26]): 50 mg/kg/day
- LOAEL (rat [8]; [26]): 50 mg/kg/day
- NEL (rat [8]; [26]): 10 mg/kg/day
- NOAEL (rat [8]; [26]): 10 mg/kg/day
- NEL (rat [8]; [27]): 50 mg/kg/day
- NOAEL (rat [8]; [27]): 50 mg/kg/day
- LEL (rat [8]; [28]): 150 mg/kg/day
- LOAEL (rat [8]; [28]): 150 mg/kg/day

SMILES: O=C([O-])CF.[Na+] [Sodium fluoroacetate]
- NEL (rat [9]; [29]): 0.05 mg/kg/day
- NOAEL (rat [9]; [29]): 0.05 mg/kg/day
- LEL (rat [9]; [30]): 0.2 mg/kg/day
- LOAEL (rat [9]; [30]): 0.2 mg/kg/day

SMILES: CCCCCCCCCc1ccc(OP(Oc2ccc(CCCCCCCCC)cc2)Oc2ccc(CCCCCCCCC)cc2)cc1 [Phenol, nonyl-, phosphite (3:1)]
- LOAEL (rat [10]; [31]): > 500 mg/kg/day
- NEL (rat [10]; [31]): 50 mg/kg/day
- NOAEL (rat [10]; [31]): ≥ 500 mg/kg/day
- LEL (rat [10]; systemic / in life observation / food consumption / food consumption): 167 mg/kg/day
